{
  "source": "paper PMC6887723",
  "about": "“Design and Synthesis of 4-(Heterocyclic Substituted Amino)-1H-Pyrazole-3-Carboxamide Derivatives and Their Potent Activity against Acute Myeloid Leukemia (AML)” (International Journal of Molecular Sciences, 2019)",
  "key": {"CDK4": {"molecular_target": "T1, CDK4 (Homo sapiens, UniProt P11802)", "T1 construct": "purchased Reaction Biology Corp", "test": "CDK4 kinase activity assay (Hot-Spot)", "assay_type": "biochemical", "conditions": "10 μM ATP; mean ± SD, three independent experiments", "experimental": "(§1) Activities of kinases were determined using Hot-SpotSM kinase assay which was performed by Reaction Biology Corp. (Malvern PA, USA) as described previously."}, "FLT3": {"molecular_target": "T2, FLT3 (Homo sapiens, UniProt P36888)", "T2 construct": "purchased Reaction Biology Corp", "T2 sequence (P36888 27-993)": "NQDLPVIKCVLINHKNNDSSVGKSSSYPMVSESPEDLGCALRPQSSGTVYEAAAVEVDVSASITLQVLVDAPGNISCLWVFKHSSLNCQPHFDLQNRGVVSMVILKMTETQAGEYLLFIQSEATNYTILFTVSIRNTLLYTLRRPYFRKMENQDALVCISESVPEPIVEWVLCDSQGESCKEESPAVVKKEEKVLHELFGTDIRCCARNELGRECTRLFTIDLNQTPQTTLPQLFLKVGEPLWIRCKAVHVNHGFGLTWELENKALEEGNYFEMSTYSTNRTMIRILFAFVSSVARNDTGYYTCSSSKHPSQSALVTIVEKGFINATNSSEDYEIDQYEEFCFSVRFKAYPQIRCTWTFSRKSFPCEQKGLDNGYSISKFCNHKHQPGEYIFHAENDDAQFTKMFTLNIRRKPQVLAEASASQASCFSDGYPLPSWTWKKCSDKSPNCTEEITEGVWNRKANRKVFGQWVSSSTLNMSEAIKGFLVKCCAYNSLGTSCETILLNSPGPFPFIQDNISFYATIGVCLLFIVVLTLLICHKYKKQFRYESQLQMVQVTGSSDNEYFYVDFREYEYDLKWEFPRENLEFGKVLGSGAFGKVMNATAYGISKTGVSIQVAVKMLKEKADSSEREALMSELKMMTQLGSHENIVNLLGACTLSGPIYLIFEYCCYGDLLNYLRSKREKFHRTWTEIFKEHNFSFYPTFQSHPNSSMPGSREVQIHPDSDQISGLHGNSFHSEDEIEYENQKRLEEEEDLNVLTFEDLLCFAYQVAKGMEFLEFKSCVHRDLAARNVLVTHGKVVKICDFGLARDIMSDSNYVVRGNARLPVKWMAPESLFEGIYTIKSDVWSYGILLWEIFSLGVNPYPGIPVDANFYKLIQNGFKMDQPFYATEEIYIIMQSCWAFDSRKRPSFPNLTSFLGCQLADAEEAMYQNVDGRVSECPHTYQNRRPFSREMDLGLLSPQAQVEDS", "test": "FLT3 kinase activity assay (Hot-Spot)", "assay_type": "biochemical", "conditions": "10 μM ATP; mean ± SD, three independent experiments", "experimental": "as §1"}, "MV4-11 cells": {"system": "MV4-11 cells", "test": "Cell apoptosis assay (Annexin V-FITC/PI, flow cytometry)", "assay_type": "cell-based, human", "conditions": "MV4-11, 2 μM, 24 h", "experimental": "The apoptosis of MV4-11 cells was determined by Annexin V-FITC/PI assay. Annexin V binds to phosphatidylserine, which is exposed on the cell membrane and is one of the earliest indicators of cellular apoptosis. PI (Propidium Iodide) is used as a DNA stain for both flow cytometry to evaluate cell viability or DNA content in cell cycle analysis and microscopy to visualize the nucleus and other DNA containing organelles. It can be used to differentiate necrotic, apoptotic, and normal cells. Cells (2 × 10^5) were seeded in 6-well plate and were treated with varying concentrations of inhibitor for 24 h. MV4-11 cells were collected and incubated with FITC-conjugated Annexin V (Nanjing keyGen Biotech Company, Nanjing, China). The nuclei were then counterstained with PI. After the dual staining, the cells were screened by a FAC Scan flow cytometer (FACS Calibun, Becton Dickinson, Nanjing, China). The upper left corner of the quadrant represents debris, lower left are live cells, upper right are advanced apoptotic or necrotic cells and lower right are apoptotic cells."}, "786-0": {"system": "786-0", "test": "NCI60 screening", "assay_type": "cell-based", "conditions": "Homo sapiens, Renal Cancer panel", "from_the_text": "(§2) With these findings, we submitted compound 8t to National Cancer Institute (NCI) to evaluate their antitumor efficacy against 60 human cancer cell lines."}, "A498": {"system": "A498", "test": "NCI60 screening", "assay_type": "cell-based", "conditions": "Homo sapiens, Renal Cancer panel", "from_the_text": "as §2"}, "ACHN": {"system": "ACHN", "test": "NCI60 screening", "assay_type": "cell-based", "conditions": "Homo sapiens, Renal Cancer panel", "from_the_text": "as §2"}, "COLO 205": {"system": "COLO 205", "test": "NCI60 screening", "assay_type": "cell-based", "conditions": "Homo sapiens, Colon Cancer panel", "from_the_text": "as §2"}, "DU-145": {"system": "DU-145", "test": "NCI60 screening", "assay_type": "cell-based", "conditions": "Homo sapiens, Prostate Cancer panel", "from_the_text": "as §2"}, "HCC-2998": {"system": "HCC-2998", "test": "NCI60 screening", "assay_type": "cell-based", "conditions": "Homo sapiens, Colon Cancer panel", "from_the_text": "as §2"}, "HCT-116": {"system": "HCT-116", "test": "NCI60 screening", "assay_type": "cell-based", "conditions": "Homo sapiens, Colon Cancer panel", "from_the_text": "as §2"}, "HOP-92": {"system": "HOP-92", "test": "NCI60 screening", "assay_type": "cell-based", "conditions": "Homo sapiens, Non-Small Cell Lung Cancer panel", "from_the_text": "as §2"}, "HT29": {"system": "HT29", "test": "NCI60 screening", "assay_type": "cell-based", "conditions": "Homo sapiens, HT-29; Colon Cancer panel", "from_the_text": "as §2"}, "K-562": {"system": "K-562", "test": "NCI60 screening", "assay_type": "cell-based", "conditions": "Homo sapiens, K562; Leukemia panel", "from_the_text": "as §2"}, "LOX IMVI": {"system": "LOX IMVI", "test": "NCI60 screening", "assay_type": "cell-based", "conditions": "Homo sapiens, Melanoma panel", "from_the_text": "as §2"}, "M14": {"system": "M14", "test": "NCI60 screening", "assay_type": "cell-based", "conditions": "Homo sapiens, Melanoma panel", "from_the_text": "as §2"}, "MALME-3M": {"system": "MALME-3M", "test": "NCI60 screening", "assay_type": "cell-based", "conditions": "Homo sapiens, Melanoma panel", "from_the_text": "as §2"}, "MDA-MB-435": {"system": "MDA-MB-435", "test": "NCI60 screening", "assay_type": "cell-based", "conditions": "Homo sapiens, Melanoma panel", "from_the_text": "as §2"}, "MOLT-4": {"system": "MOLT-4", "test": "NCI60 screening", "assay_type": "cell-based", "conditions": "Homo sapiens, Leukemia panel", "from_the_text": "as §2"}, "NCI-H23": {"system": "NCI-H23", "test": "NCI60 screening", "assay_type": "cell-based", "conditions": "Homo sapiens, Non-Small Cell Lung Cancer panel", "from_the_text": "as §2"}, "NCI-H322M": {"system": "NCI-H322M", "test": "NCI60 screening", "assay_type": "cell-based", "conditions": "Homo sapiens, Non-Small Cell Lung Cancer panel", "from_the_text": "as §2"}, "SF-268": {"system": "SF-268", "test": "NCI60 screening", "assay_type": "cell-based", "conditions": "Homo sapiens, CNS Cancer panel", "from_the_text": "as §2"}, "SF-295": {"system": "SF-295", "test": "NCI60 screening", "assay_type": "cell-based", "conditions": "Homo sapiens, CNS Cancer panel", "from_the_text": "as §2"}, "SK-MEL-2": {"system": "SK-MEL-2", "test": "NCI60 screening", "assay_type": "cell-based", "conditions": "Homo sapiens, Melanoma panel", "from_the_text": "as §2"}, "SK-MEL-5": {"system": "SK-MEL-5", "test": "NCI60 screening", "assay_type": "cell-based", "conditions": "Homo sapiens, Melanoma panel", "from_the_text": "as §2"}, "SK-OV-3": {"system": "SK-OV-3", "test": "NCI60 screening", "assay_type": "cell-based", "conditions": "Homo sapiens, Ovarian Cancer panel", "from_the_text": "as §2"}, "SNB-75": {"system": "SNB-75", "test": "NCI60 screening", "assay_type": "cell-based", "conditions": "Homo sapiens, CNS Cancer panel", "from_the_text": "as §2"}, "SR": {"system": "SR", "test": "NCI60 screening", "assay_type": "cell-based", "conditions": "Homo sapiens, Leukemia panel", "from_the_text": "as §2"}, "SW-620": {"system": "SW-620", "test": "NCI60 screening", "assay_type": "cell-based", "conditions": "Homo sapiens, Colon Cancer panel", "from_the_text": "as §2"}, "U251": {"system": "U251", "test": "NCI60 screening", "assay_type": "cell-based", "conditions": "Homo sapiens, U-251; CNS Cancer panel", "from_the_text": "as §2"}},
  "data": [
    {"smiles": "O=C(Nc1ccc(N2CCNCC2)cc1)c1n[nH]cc1Nc1ncnc2sc3c(c12)CCC3", "note": "[Compound 8t]", "values": [
      {"measurement": "IC50", "setting": "CDK4", "result": "0.77 ± 0.007", "unit": "nM"},
      {"measurement": "IC50", "setting": "FLT3", "result": "0.089 ± 0.013", "unit": "nM"},
      {"measurement": "apoptosis rate", "setting": "MV4-11 cells", "result": 51.36, "unit": "%"},
      {"measurement": "GI50", "setting": "786-0", "result": 360, "unit": "nM"},
      {"measurement": "GI50", "setting": "A498", "result": 140, "unit": "nM"},
      {"measurement": "GI50", "setting": "ACHN", "result": 160, "unit": "nM"},
      {"measurement": "GI50", "setting": "COLO 205", "result": 120, "unit": "nM"},
      {"measurement": "GI50", "setting": "DU-145", "result": 300, "unit": "nM"},
      {"measurement": "GI50", "setting": "HCC-2998", "result": 1200, "unit": "nM"},
      {"measurement": "GI50", "setting": "HCT-116", "result": 110, "unit": "nM"},
      {"measurement": "GI50", "setting": "HOP-92", "result": 40, "unit": "nM"},
      {"measurement": "GI50", "setting": "HT29", "result": 260, "unit": "nM"},
      {"measurement": "GI50", "setting": "K-562", "result": 120, "unit": "nM"},
      {"measurement": "GI50", "setting": "LOX IMVI", "result": 200, "unit": "nM"},
      {"measurement": "GI50", "setting": "M14", "result": 120, "unit": "nM"},
      {"measurement": "GI50", "setting": "MALME-3M", "result": 240, "unit": "nM"},
      {"measurement": "GI50", "setting": "MDA-MB-435", "result": 110, "unit": "nM"},
      {"measurement": "GI50", "setting": "MOLT-4", "result": 80, "unit": "nM"},
      {"measurement": "GI50", "setting": "NCI-H23", "result": 260, "unit": "nM"},
      {"measurement": "GI50", "setting": "NCI-H322M", "result": 140, "unit": "nM"},
      {"measurement": "GI50", "setting": "SF-268", "result": 720, "unit": "nM"},
      {"measurement": "GI50", "setting": "SF-295", "result": 270, "unit": "nM"},
      {"measurement": "GI50", "setting": "SK-MEL-2", "result": 1160, "unit": "nM"},
      {"measurement": "GI50", "setting": "SK-MEL-5", "result": 250, "unit": "nM"},
      {"measurement": "GI50", "setting": "SK-OV-3", "result": 260, "unit": "nM"},
      {"measurement": "GI50", "setting": "SNB-75", "result": 50, "unit": "nM"},
      {"measurement": "GI50", "setting": "SR", "result": 60, "unit": "nM"},
      {"measurement": "GI50", "setting": "SW-620", "result": 120, "unit": "nM"},
      {"measurement": "GI50", "setting": "U251", "result": 110, "unit": "nM"}
    ]}
  ]
}
